The assay has as its system Cell line HT-29 derived from colon tumor. Description: Growth inhibition against colon tumor cell line (MTT method). As to conditions: 72 hours, control 0.337 ± 0.055. The class given is cell-based. As for the experimental part:
Cell line HT-29 derived from colon tumor was inoculated into McCoy's SA medium supplemented with 10% fetal calf serum comprising penicillin 50 U/ml, streptomycin 50 μg/ml and HEPES 10 mM on 96-well cell culture plate (7,500 cells/well). The cells were pre-incubated in an atmosphere of 95% air and 5% carbon dioxide at 37° C. for 24 hours. […] The plate was incubated further 72 hours. The cell number in the each well was determined by the MTT method based on the difference of the optical density.
(Formazan colour is commonly taken as a measure of viable cells.)

Regarding `C[C@H](CC(=O)O)OC(=O)C[C@@H](C)O` [R-dimer, dimer of R(−)-β-hydroxybutyric acid], the “cell number by MTT method (optical density)” value (from here on “cell number by MTT method”) reads like this: (0.1 mM) 0.288 ± 0.019; (0.5 mM) 0.251 ± 0.029; (1 mM) 0.248 ± 0.029; (2 mM) 0.237 ± 0.019.

In the case of `C[C@@H](O)CC(=O)O` [R-β-hydroxy-butyric acid, R(−)-β-hydroxy-butyric acid], the “cell number by MTT method” value (0.1 mM) stood at 0.271 ± 0.028, the “cell number by MTT method” value (0.5 mM) came to 0.264 ± 0.019, the “cell number by MTT method” value (1 mM) is 0.272 ± 0.015 and the “cell number by MTT method” value (2 mM) is 0.284 ± 0.023.

`C[C@H](O)CC(=O)O` [S-β-hydroxy-butyric acid, S(+)-β-hydroxybutyric acid]: the “cell number by MTT method” value is, setting by setting: (0.1 mM) 0.257 ± 0.035; (0.5 mM) 0.255 ± 0.013; (1 mM) 0.281 ± 0.017; (2 mM) 0.293 ± 0.022.

As to `CCCC(=O)O` [butyric acid, reference compound], the “cell number by MTT method” value (0.1 mM) is 0.234 ± 0.012, the “cell number by MTT method” value (0.5 mM) is 0.243 ± 0.009, the “cell number by MTT method” value (1 mM) is listed as 0.250 ± 0.010 and the “cell number by MTT method” value (2 mM) was determined as 0.200 ± 0.009.

The values above are taken from US9649332B2, “Poly (β-hydroxy short-medium chain fatty acid)” (EARTHUS, INC., priority 2003, dated 2017).
